Results reported in PMC2990605 (British Journal of Cancer, 2010).

Key:
[1] = test system: intracellular aminopeptidases; settings: cited from earlier work
[2] = in vivo
Experimental: On day 21, samples were taken until 8 h post-dose; the day 22 predose sample was used as the 24 h sample of day 21. […] Peak plasma concentrations (Cmax), overall drug exposure (AUC), and terminal plasma half-life (t½) were calculated using noncompartmental methods using WinNonlin Professional software (version 4.1, Pharsight Corporation, St Louis, MO, USA). Pharmacokinetics analysis, with reference to possible interactions, was descriptive.

[3] = design: method as in Talmadge et al, 1986; Ichinose et al, 2003; settings: ref Talmadge et al, 1986; Ichinose et al, 2003; cited from earlier work

CC(C)C[C@@H](C(=O)N[C@H](C(=O)O)c1ccccc1)[C@H](O)C(=O)NO [CHR-79888]
inhibition of intracellular aminopeptidases [1]: potent inhibitor | overall exposure versus dose [2]: increased in a dose proportional manner

CC(C)C[C@H](NC(=O)[C@@H](O)[C@H](N)Cc1ccccc1)C(=O)O [bestatin]
immunostimulatory activity [3]: immunostimulatory activity has been described
